Data published in publication PMC7901654, “Bioisosteric Discovery of NPA101.3, a Second-Generation RET/VEGFR2 Inhibitor Optimized for Single-Agent Polypharmacology” (Journal of Medicinal Chemistry, 2020).

Columns and labels:
[1] = Toxicity, plasma biochemical analysis; type: in vivo, mouse; conditions: 10 mg/kg/day oral, 7 days, mice
Description: In vivo target (RET and VEGFR2) inhibition was studied by treating animals grafted with NIH3T3 RET/C634Y cells at different doses (0.3, 1, or 3 mg/kg/day p.o.) of NPA101.3 for 2 days and then performing Western blot analysis on protein extracts. […] Then, to determine antitumorigenic activity and to better distinguish RET- and VEGFR2-mediated effects, we tested NPA101.3 in nude mice transplanted with NIH3T3 cells transformed by either RET/C634Y or HRAS/G12V. Before tumors appeared, animals were treated daily with NPA101.3 (1.0, 3.0, or 10.0 mg/kg/day) or left untreated. […] Still, VEGFR2 inhibition was detected also in RAS-driven tumors, an effect that might explain the, albeit reduced, effect of the drug on their growth (Figure S13). Importantly, as predicted, no trace of NPA101.3 demethyl metabolites was detected after 1 or 4 h from oral dosing in mice (Figure S14).
Patch-Clamp assay. The patch-clamp assay has been outsourced to Aptuit (Verona, Italy). […]
After thawing, cells were maintained in culture using minimum essential medium supplemented with 10% foetal bovine serum, 1% non-essential amino acids, 1% sodium pyruvate, 2mM L-glutamine, 1% pen-strep, 15μg/ml blasticidin and 100 μg/ml hygromycin. hERG channel expression induction was obtained by adding 10 μg/ml tetracycline 48 h before the experiment. […] Current amplitude was measured and […]

[2] = system: cells negative for RET oncogenes; test: Growth inhibition, cells negative for RET oncogenes (summary); type: cell-based; conditions: doses of ≤100 nM
Description: Finally, NPA101.3 featured efficacy already at 1 mg/kg/day in RET-driven tumors in nude mice. […] Therefore, though in a therapeutic setting toxicity may be increased by hitting multiple targets, it is feasible that the activity of the NPA101.3 against RET-driven tumors may take advantage of a synergistic combination of cell autonomous (on tumor cell growth mediated by RET inhibition) and non-cell autonomous (on blood vessel formation mediated by VEGFR2 inhibition) effects, potentiating its effect and reducing the chances of resistance development. Several TKIs with anti-RET activity are available, and some are already registered for the treatment of different types of thyroid cancers. […]
Nthy-ory-3-1 (10000 per well), TPC-1 (10000 per well), MZ-CRC-1 (100000 per well), TT (200000 per well), Lc-2/ad (100000 per well), BCPAP (10000 per well), 8505-C (10000 per well), PC-9 (10000 per well), A549 (10000 per well), CALU-1 (10000 per well), NIH3T3 RET/C634Y (10000 per well), and NIH3T3 HRAS/G12V (10000 per well) were seeded in six-well tissue culture plates. […] Cells were counted every day (Ba/F3), every 2 days (fibroblasts), or every 2–3 days (human cell lines). […] IC50 doses were calculated through a curve fitting analysis from last day of growth curves using the PRISM software program (Graphpad Software Inc.).

SMILES: CC(C)(C)c1cc(NC(=O)Cc2ccc(-n3cnc4cc(-c5ccc(S(C)(=O)=O)cc5)ccc43)cc2)no1 [NPA101.3]
- standard blood markers of organ damage [1]: no significant change
- growth effect in cells negative for RET oncogenes [2]: no detectable effect
